Structures are written as SMILES. Bounds are passed on as bounds.

Usually melting point stands for the temperature, or range, at which the solid turns liquid. For the molecule `CNC(=O)OCc1cccc2c1ccn2-c1ccnc(N[C@H]2CC[C@H](O)CC2)n1` [Compound 100, Methyl-carbamic acid 1-[2-(4-hydroxy-cyclo-hexylamino)-pyrimidin-4-yl]-1H-indol-4-ylmethyl ester], the melting point was in the range of 132 to 133 °C.

Turning to `O=[N+]([O-])c1ccc2cnn(-c3ccnc(N[C@H]4CC[C@H](O)CC4)n3)c2c1` [Compound 27], the melting point was in the range of 221.8 to 223 °C. Take `NS(=O)(=O)CCCOc1cccc2c1cnn2-c1ccnc(N[C@H]2CC[C@H](C(=O)N3CCC(O)CC3)CC2)n1` [Compound 243, 3-(1-{2-[4-(4-hydroxy-piperidine-1-carbonyl)-cyclohexylamino]-pyrimidin-4-yl}-1H-indazol-4yloxy)-propane-1-sulfonic acid amide]: the melting point is 237 to 238 °C. Then `CC(=O)N[C@H]1CC[C@H](Nc2ncc(Cl)c(-n3ccc4ccccc43)n2)CC1` [Compound 119, N-[4-(5-chloro-4-indol-1-ylpyrimidin-2-yl-amino)-cyclohexyl]-acetamide], with 263.2 to 263.8 °C; and `CC(=O)NCCCOc1cccc2c1cnn2-c1ccnc(N[C@H]2CC[C@H](N(C)S(C)(=O)=O)CC2)n1` [Compound 213, N-[3-(1-{2-[4-(methane-sulfonyl-methylamino)-cyclohexylamino]-pyrimidin-4-yl}-1H-indazol-4-yloxy)-propyl]-acetamide], with 226 to 227 °C. The same measure for `CS(=O)(=O)CCCOc1cccc2c1ccn2-c1ccnc(N[C@H]2CC[C@H](C(N)=O)CC2)n1` [Compound 250, 4-{4-[4-(3-methane-sulfonyl-propoxy)-indol-1-yl]-pyrimidin-2-ylamino}-cyclohexane-carboxylic acid amide]: 249 to 250 °C; for `COC(=O)N[C@H]1CC[C@H](Nc2nccc(-n3ncc4c(OCCCS(C)(=O)=O)cccc43)n2)CC1` [Compound 170, (4-{4-[4-(3-methane-sulfonyl-propoxy)-indazol-1-yl]-pyrimidin-2-ylamino}-cyclohexyl)-carbamic acid methyl ester]: 226.8 to 227.3 °C. The same measure for `CN(C)C(=O)[C@H]1CC[C@H](Nc2nccc(-n3ccc4c(OCCCS(C)(=O)=O)cccc43)n2)CC1` [Compound 251, 4-{4-[4-(3-methane-sulfonyl-propoxy)-indol-1-yl]-pyrimidin-2-ylamino}-cyclohexane-carboxylic acid dimethylamide]: 169 to 170 °C; for `CS(=O)(=O)CCCOc1cccc2c1ccn2-c1ccnc(N[C@H]2CC[C@H](N)CC2)n1.Cl`: 291 to 292 °C; for `O=C([C@H]1CC[C@H](Nc2nccc(-n3ccc4c(OCC(O)CC(F)(F)F)cccc43)n2)CC1)N1CCC(O)CC1` (stereo partly drawn) [Compound 288]: 215 to 215.5 °C.

`CS(=O)(=O)CCCOc1cccc2c1ccn2-c1ccnc(N[C@H]2CC[C@H](C(=O)N3CC(O)C3)CC2)n1` [Compound 223, (3-hydroxy-azetidin-1-yl)-(4-{4-[4-(3-methane-sulfonyl-propoxy)-indol-1-yl]-pyrimidin-2-ylamino}-cyclohexyl)-methanone]: the melting point was in the range of 152 to 153 °C. Molecule `O[C@H]1CC[C@H](Nc2nccc(-c3n[nH]c4c(C(F)(F)F)cccc34)n2)CC1` [Example 3, trans-4-[4-(7-Trifluoromethyl-1H-indazol-3-yl)-pyrimidin-2-yl-amino]-cyclohexanol] showed a melting point of 265.5 to 270 °C. The same measure for `COC(=O)c1cccc2c1ccn2-c1ccnc(N[C@H]2CC[C@H](NS(=O)(=O)C3CC3)CC2)n1` [Compound 257, 1-[2-(4-cyclopropane-sulfonylamino-cyclo-hexylamino)-pyrimidin-4-yl]-1H-indole-4-carboxylic acid methyl ester]: 250 to 251 °C; for `O[C@H]1CC[C@H](Nc2nccc(-n3ncc4c(OCC5CC5)cccc43)n2)CC1` [Compound 94, 4-[4-(4-cyclopropyl-methoxy-indazol-1-yl)-pyrimidin-2-ylamino]-cyclohexanol]: > 300 °C. Then `O=C([C@H]1CC[C@H](Nc2nccc(-n3ncc4c(OCCCO)cccc43)n2)CC1)N1CCCC1` [Compound 144, (4-{4-[4-(3-hydroxy-propoxy)-indazol-1-yl]-pyrimidin-2-ylamino}-cyclohexyl)-pyrrolidin-1-ylmethanone], with 187.5 to 188.5 °C; and `O=C(O)c1cccc2c1ccn2-c1ccnc(N[C@H]2CC[C@H](O)CC2)n1` [Example 7, trans-1-[2-(4-Hydroxy-cyclohexylamino)-pyrimidin-4-yl]-1H-indole-4-carboxylic acid], with 259 to 261 °C; and `COCCOCc1cccc2c1ccn2-c1ccnc(N[C@H]2CC[C@H](N(C)S(C)(=O)=O)CC2)n1` [Compound 160, N-(4-{4-[4-(2-methoxy-ethoxymethyl)-indol-1-yl]-pyrimidin-2-ylamino}-cyclohexyl)-N-methyl-methane-sulfonamide], with 154 to 156.5 °C. The same measure for `CC1(C)OC[C@@H](COc2cccc3c2cnn3-c2ccnc(N[C@H]3CC[C@H](C(C)(C)O)CC3)n2)O1` (stereo in doubt) [Compound 132, 2-(4-{4-[4-(2,2-di-methyl[1,3]dioxolan-4-ylmethoxy)-indazol-1-yl]-pyrimidin-2-yl-amino}-cyclohexyl)-propan-2-ol]: 178.5 to 180 °C; for `CC(C)(C)OC(=O)N[C@H]1CC[C@H](Nc2nccc(-n3ccc4c(OCCCS(C)(=O)=O)cccc43)n2)CC1` [Compound 181, (4-{4-[4-(3-methane-sulfonyl-propoxy)-indol-1-yl]-pyrimidin-2-ylamino}-cyclohexyl)-carbamic acid t-butyl ester]: 227.5 to 228.5 °C. Regarding `O=C([C@H]1CC[C@H](Nc2ncc(Cl)c(-n3ccc4ccccc43)n2)CC1)N1CCCC1` [Compound 120, [4-(5-chloro-4-indol-1-ylpyrimidin-2-ylamino)-cyclohexyl]-pyrrolidin-1-ylmethanone], the melting point was 182 to 182.5 °C. On to `CS(=O)(=O)CCCOc1cccc2c1ccn2-c1ccnc(N[C@H]2CC[C@H](N3CCCS3(=O)=O)CC2)n1` [Compound 305, [4-(1,1-dioxo-isothiazolidin-2-yl)-cyclohexyl]-{4-[4-(3-methane-sulfonyl-propoxy)-indol-1-yl]-pyrimidin-2-yl}-amine], for which the melting point fell in the range of 164.1 to 172.5 °C.

As to `Cn1nc(-c2ccnc(N[C@H]3CC[C@H](O)CC3)n2)c2ccccc21` [Compound 77, 4-[4-(1-methyl-1H-indazol-3-yl)pyridimidin-2-ylamino]-cyclo-hexanol], the melting point was 180 to 183.3 °C.

As to `CC(=O)N[C@H]1CC[C@H](Nc2nccc(-n3ncc4c(OC[C@@H](O)CO)cccc43)n2)CC1` (stereo in doubt) [Compound 154, N-(4-{4-[4-(2,3-di-hydroxy-propoxy)-indazol-1-yl]-pyrimidin-2-ylamino}-cyclohexyl)-acetamide], the melting point was in the range of 202 to 205 °C.

`CS(=O)(=O)N[C@H]1CC[C@H](Nc2nccc(-n3ccc4c(OCC5CCN(C(=O)OCc6ccccc6)CC5)cccc43)n2)CC1` [Compound 195, 4-{1-[2-(4-methane-sulfonylamino-cyclo-hexylamino)-pyrimidin-4-yl]-1H-indol-4-yloxymethyl}-piperidine-1-carboxylic acid benzyl ester]: the melting point fell in the range of 179 to 180 °C. Then `CCNC(=O)[C@H]1CC[C@H](Nc2nccc(-n3ccc4c(OCCCS(=O)(=O)NC)cccc43)n2)CC1` [Compound 303, 4-{4-[4-(3-methane-sulfamoyl-propoxy)-indol-1-yl]-pyrimidin-2-ylamino}-cyclohexane-carboxylic acid ethyl-amide], with 201.7 to 203.2 °C; and `Oc1cccc2c1cnn2-c1ccnc(N[C@H]2CC[C@H](O)CC2)n1` [Compound 242, 1-[2-(4-hydroxy-cyclohexylamino)-pyrimidin-4-yl]-1H-indazol-4-ol], with > 300 °C. Molecule `CC(C)(O)c1cccc2c1ccn2-c1ccnc(N[C@H]2CC[C@H](NS(=O)(=O)N3CCCC3)CC2)n1` [Compound 258, Pyrrolidine-1-sulfonic acid (4-{4-[4-(2-hydroxyprop-2-yl)-indol-1-yl]-pyrimidin-2-ylamino}-cyclohexyl)-amide] gave a melting point of 178 to 179 °C. For `CC(=O)N[C@H]1CC[C@H](Nc2nccc(-n3ccc4c(S(C)(=O)=O)cccc43)n2)CC1` [Compound 218, N-{4-[4-(4-methane-sulfonyl-indol-1-yl)-pyrimidin-2-ylamino]-cyclohexyl}-acetamide], the melting point was 264 to 265 °C. The same measure for `CC(O)c1cccc2c1ccn2-c1ccnc(N[C@H]2CC[C@H](NS(=O)(=O)N(C)C)CC2)n1` (stereo partly drawn) [Compound 137, N-(N′,N′-dimethylsulfonamido) N-{4-[4-(1-hydroxyethyl)-indol-1-yl-pyrimidin-2-yl-amino]-cyclohexyl} amine]: > 300 °C. For `OCC(O)COc1ccc2cnn(-c3ccnc(N[C@H]4CC[C@H](O)CC4)n3)c2c1` (stereo partly drawn) [Compound 93, 3-{1-[2-(4-hydroxy-cyclohexylamino)-pyrimidin-4-yl]-1H-indazol-6-yloxy}-propane-1,2-diol], the melting point was 223.8 to 224.7 °C. For `CC(C)(O)c1cccc2c1ccn2-c1ccnc(N[C@H]2CC[C@H](NS(C)(=O)=O)CC2)n1` [Compound 117, N-(4-{4-[4-(1-hydroxy-1-methylethyl)-indol-1-yl]-pyrimidin-2-yl-amino}-cyclohexyl)-methanesulfonamide], the melting point was in the range of 247 to 249.6 °C.

`CC(C)(O)[C@H]1CC[C@H](Nc2nccc(-n3ccc4c(S(C)(=O)=O)cccc43)n2)CC1` [Compound 209, 2-{4-[4-(4-methane-sulfonyl-indol-1-yl)-pyrimidin-2-ylamino]-cyclohexyl}-propan-2-ol] registered a melting point of 217.8 to 218.5 °C. The same measure for `CC(C)Oc1cccc2c1cnn2-c1ccnc(N[C@H]2CC[C@H](O)CC2)n1` [Compound 167, 4-[4-(4-isopropoxy-indazol-1-yl)-pyrimidin-2-ylamino]-cyclohexanol]: 188.2 to 189.2 °C.

The values are drawn from patent US8399462B2, “JNK modulators” (Roche Palo Alto LLC, priority 2006, dated 2013).
